Series [1] has as its system H. pylori. Briefly: Formation of carboxylic acid from aliphatic amide in H. pylori enriched liquid culture, SPME of vapor phase and GC-MS (SIM). It is filed as cell-based, Helicobacter pylori. The note with it: for formation of the respective acid in the vapor phase: amide added to medium containing H. pylori (collection cultures and clinical isolates), GC-MS. Here is the method: In vitro ex vivo experimental tests were carried out in H. pylori cultures from collections and clinical isolates. […] The experimental tests were performed in vitro ex vivo in H. pylori cultures from collection and clinical isolates enriched in liquid medium (F12) under microaerophilic conditions. These compounds were administrated as diluted aqueous solutions (0.5 mL) to the liquid culture media (25 mL), 120 mL glass flasks hermetically sealed and encapsulated with a cap containing a septum. The collection of the acids that were formed after the amide administration described in 1 was carried out after acidification of the medium with acid tartaric (mimetizing the stomach's pH) and exposing to the flask's vapor phase for 5 minutes at 37° C. a solid-phase microextraction fiber (SPME) coated with carbowax/divinilbenzene (65 μm thickness). The search in vapor phase for the carboxylic acids generated by the bacterium's aliphatic amidases activity on the amides administrated was carried out by means of gas chromatography using a capillary column of intermediate polarity. The detection was performed by mass spectrometry comprising 3 scan cycles with selective ion monitoring (SIM) the m/z=74 for the propionic acid and m/z=88 for butyric acid.

Series [2] can be described thus: Amide incubated in flask comprising only the medium, without any bacteria addition, SPME GC-MS. It counts as physicochemical. As to conditions: 0.5 mL of 20 mM solution, 60 minutes incubation at 37° C. Here is the method:
These compounds were administrated as diluted aqueous solutions (0.5 mL) to the liquid culture media (25 mL), 120 mL glass flasks hermetically sealed and encapsulated with a cap containing a septum.
The collection of the acids that were formed after the amide administration described in 1 was carried out after acidification of the medium with acid tartaric (mimetizing the stomach's pH) and exposing to the flask's vapor phase for 5 minutes at 37° C. a solid-phase microextraction fiber (SPME) coated with carbowax/divinilbenzene (65 μm thickness).
The search in vapor phase for the carboxylic acids generated by the bacterium's aliphatic amidases activity on the amides administrated was carried out by means of gas chromatography using a capillary column of intermediate polarity.
The detection was performed by mass spectrometry comprising 3 scan cycles with selective ion monitoring (SIM) the m/z=74 for the propionic acid and m/z=88 for butyric acid.

Two molecules from patent US20100317052A1, “PROCESS FOR DETECTING HELICOBACTER PYLORI USING ALIPHATIC AMIDES” (priority 2006, published 2010) can be followed below.

`CCCC(N)=O` [butyramide]: the “chromatographic area corresponding to the butyric acid” value in series [1] (0.5 mL of 20 mM solution, medium enriched with H. pylori, 60 minutes incubation at 37° C., vapor phase SPME GC-MS m/z=88) is listed as 6.5×10^5. In series [1], the “formation of the respective acid in the vapor phase” value was “the formation of the respective acids takes place”. The “chromatographic peak corresponding to butyric acid” value in series [2] is “did not derive any chromatographic peak”.

For `CCC(N)=O` [propionamide], the “chromatographic area corresponding to the propanoic acid” value in series [1] (0.5 mL of 20 mM solution, medium enriched with H. pylori, 60 minutes incubation at 37° C., vapor phase SPME GC-MS m/z=74) is 7.0×10^5. Also, the “formation of the respective acid in the vapor phase” value in series [1] was “the formation of the respective acids takes place”. The “chromatographic peak corresponding to propanoic acid” value in series [2] is “did not produce any chromatographic peak”.
